Laboratory results from patent US8802117B2 (Mavi Sud S.r.l., priority 2006, dated 2014).
“Also recorded” adds a separate entry of the source.

Experiments:
[1] = Overall in vitro and in vivo tests of tables 1-9 (fibroblast growth, ATP, collagen, IL-8, hydration, lipids, lipid peroxides, melanin); conditions: in association with melatonin, concentrations being equal
Description: Fibroblasts of NB1RGB strain were used (2×10^5 cell/ml) and suspended in the α-MEM culture medium placed in 10 Petri dishes (containing 10% foetal bovine serum (FBS), 100 units/ml penicillin and 100 µg/ml streptomycin). while two were left as control. All products were additioned in a 1 μg/ml concentration. All biochemical processes require energy that is accumulated in the form of ATP (adenosyn-triphosphate). […] Out of the 9 culture-containing Petri dishes used, 8 were additioned with 1% μg/ml of the different substances to be tested, whereas one served as control. A continuous and regular collagen synthesis is of fundamental importance for the ECM (extracellular matrix) structure, and therefore for skin elasticity and compactness and wrinkle reduction. Collagen 1 presence was verified with the use of specific antibodies on all ten cell cultures, 8 of which enriched with 1% μl/ml of the various substances directly introduced in the culture medium, and one as control. Collected blood aliquots, pre-supplemented and non-supplemented with the components under study (1 μl/ml) were subdivided into 10 Petri dishes, 8 of which were further supplemented with 10 μl/ml Tumor Necrose Factor a (TNF-α), and one left as control. […] IL-8 amounts were determined photometrically, by specific antibodies. […] During the checking, skin surface lipids and hydration were verified by 3C System. Lipid peroxides were checked with the Pugliesi method (Pugliesi P. (1990) Assessment of Antiaging Products. In: W.C. […] This experiment was meant to assess the protective activity of these compounds if and when taken orally. […] (International Units)/ml penicillin and […] streptomycin) containing 2 mM teophylline. The suspension was subdivided into 7 500-μl portions. To each portion, placed in suitable bars, […] of the various mixtures of active agents were added. Of each mixture 6 samples were prepared.

[2] = system: anagen phase of hair cycle; assay: Action on the anagen phase of hair cycle: lotions A, B, C on the scalp of volunteers for 60 days; assay type: in vivo, human; conditions: topical lotion morning and evening
Description: Thirty volunteers (15 women and 15 men) suffering from general hair problems: slight thinning out, thinning, continual loss of hair and occasional formation of forms of alopecia restricted to scalp areas, were subjected to the treatment.
All subjects were given, under double-blind conditions, a lotion to be applied morning and evening by light friction, in the amount of 5/6 drops poured on the various areas and deemed sufficient for the treatment of the entire scalp.
The study lasted 60 days.
At day 0, an area of about 1 cm^2 was delimited in the anteroparietal zone of the scalp, from which hair was carefully removed. Removed hair were weighted to verify the mass thereof, and the number of follicles present was counted by a suitable grid.
At day +60, the number and weight of regrown hair were reassessed, again checking the number of follicles present.

nerve cell cultures = assay: Preliminary investigation of cell vitality and toxicity on nerve cell cultures (in vitro cellular models); assay type: cell-based

| Compound | enhancement of melatonin action (synergy) [1] | other results |
| --- | --- | --- |
| CC1=C(/C=C/C(C)=C/C=C/C(C)=C/C=C/C=C(C)/C=C/C=C(C)/C=C/C2=C(C)CCCC2(C)C)C(C)(C)CCC1 [beta-carotene] | significantly enhance the bioprotective activity of melatonin; also recorded: further enhance the positive effects of melatonin | – |
| CC1=NCC[C@@H](C(=O)O)N1 [ectoine] | significantly enhance the bioprotective activity of melatonin | – |
| O=C(O)CCCCC1CCSS1 (stereo not drawn) [lipoic acid] | significantly enhance the bioprotective activity of melatonin; also recorded: further enhance the positive effects of melatonin; also recorded: tendentially more active than carotenoids | – |
| CC1=C[C@H](O)CC(C)(C)[C@H]1/C=C/C(C)=C/C=C/C(C)=C/C=C/C=C(C)/C=C/C=C(C)/C=C/C1=C(C)C[C@@H](O)CC1(C)C [lutein] | significantly enhance the bioprotective activity of melatonin; also recorded: further enhance the positive effects of melatonin | – |
| COc1ccc2[nH]cc(CCNC(C)=O)c2c1 [melatonin] | – | anagen phase of hair / hair regrowth [2]: causes an increase of the anagen phase of hair, thereby enhancing its regrowth; hair weight (volume, body) [2]: without however exerting an effect on the hair weight itself; toxicity / reduction of cell vitality (nerve cell cultures; increasing concentrations, 3-mg melatonin alone vs association of melatonin, carotenoid, immunostimulant each 11-mg): cell vitality tends to reduce; also recorded: far more toxic; cytoprotective action towards free radicals of Oxygen (ROS), cell vitality (nerve cell cultures; suitable concentrations, in vitro model): capable of preserving cell vitality |
| beta-glucan | significantly enhance the bioprotective activity of melatonin; also recorded: tendentially more active than ectoine | – |
